26 compounds from patent US9765035B2 (priority 2013, dated 2017) can be followed below.

SMILES strings stand for the structures. Like-named read-outs stand apart in the source and are kept apart here.

In the test the test system is RKO cells, mono-methyl arginine. Briefly: RKO Methylation Assay (In Cell Western for mono-methyl arginine). The note with it: Homo sapiens. Type of test: cell-based. The source says:
RKO adherent cells were purchased from ATCC (American Type Culture Collection), Manassas, Va., USA. DMEM/Glutamax medium, penicillin-streptomycin, heat inactivated fetal bovine serum, 0.05% trypsin and D-PBS were purchased from Life Technologies, Grand Island, N.Y., USA. Odyssey blocking buffer, 800CW goat anti-rabbit IgG (H+L) antibody, and Licor Odyssey infrared scanner were purchased from Licor Biosciences, Lincoln, Nebr., USA. Mono-methyl arginine antibody was purchased from Cell Signaling Technology, Danvers, Mass., USA. Methanol was purchased from VWR, Franklin, Mass., USA. 10% Tween 20 was purchased from KPL, Inc., Gaithersburg, Md., USA. DRAQ5 was purchased from Biostatus Limited, Leicestershire, UK.
RKO adherent cells were maintained in growth medium (DMEM/Glutamax medium supplemented with 10% v/v heat inactivated fetal bovine serum and 100 units/mL penicillin-streptomycin) and cultured at 37° C. under 5% CO2.
Cell Treatment, in Cell Western (ICW) for Detection of Mono-Methyl Arginine and DNA Content. […] Compound (100 nL) from a 96-well source plate was added directly to 384 well cell plate. Plates were incubated at 37° C., 5% CO2 for 72 hours. After three days of incubation, plates were brought to room temperature outside of the incubator for ten minutes and blotted on paper towels to remove cell media. 50 μL of ice cold 100% methanol was added directly to each well and incubated for 30 min at room temperature. After 30 min, plates were transferred to a Biotek EL406 plate washer and washed 2 times with 100 μL per well of wash buffer (1×PBS). Next 60 μL per well of Odyssey blocking buffer (Odyssey Buffer with 0.1% Tween 20 (v/v)) were added to each plate and incubated 1 hour at room temperature. Blocking buffer was removed and 20 μL per well of primary antibody was added (mono-methyl arginine diluted 1:200 in Odyssey buffer with 0.1% Tween 20 (v/v)) and plates were incubated overnight (16 hours) at 4° C. Plates were washed 5 times with 100 μL per well of wash buffer. […] The plates were washed 5 times with 100 μL per well wash buffer then 2 times with 100 μL per well of water. Plates were allowed to dry at room temperature then imaged on the Licor Odyssey machine which measures integrated intensity at 700 nm and 800 nm wavelengths. Both 700 and 800 channels were scanned.
Calculations: First, the ratio for each well was determined by:
Each plate included fourteen control wells of DMSO only treatment (minimum activation) as well as fourteen control wells for maximum activation treated with 20 μM of a reference compound. The average of the ratio values for each control type was calculated and used to determine the percent activation for each test well in the plate. Reference compound was serially diluted three-fold in DMSO for a total of nine test concentrations, beginning at 20 μM. Percent activation was determined and EC30 curves were generated using triplicate wells per concentration of compound.

The mark [1] stands for this setting: In Cell Western EC30, RKO cells, 72 hours, single experiment or average of multiple experiments, read-out: RGG ICW.
The mark [2] stands for this setting: In Cell Western, RKO cells, 72 hours, read-out: RGG ICW EC30.
[3] abbreviates: RKO, 72 h, read-out: RGG ICW EC30.

As for `CNCCN(C)Cc1nn(C)c2ccc(OCC(C)C)cc12` [Compound 3, N^1-((5-iso-butoxy-1-methyl-1H-indazol-3-yl)methyl)-N^1,N^2-dimethylethane-1,2-diamine], the EC30 runs as follows: under setting [1], 14 µM; under setting [2], greater than 12 µM.

Take `CNCCN(C)Cc1n[nH]c2ccc(OCCOC)cc12` [Compound 5, N^1-((5-(2-methoxyethoxy)-1H-indazol-3-yl)methyl)-N^1,N^2-dimethylethane-1,2-diamine]: the EC30 reads like this: under setting [1], 11.4 µM; under setting [2], 3.01 to 12 µM.

Take `CNCCN(C)Cc1n[nH]c2ccc(OCCCOC)cc12` [Compound 6]: the EC30 was 1.55 µM under setting [1] and less than 3 µM under setting [2].

Consider `CNCCN(C)Cc1n[nH]c2ccc(OCCc3ccccc3)cc12` [Compound 7], for which the EC30 was 0.791 µM under setting [1] and less than 3 µM under setting [2].

Consider `CNCCN(C)Cc1n[nH]c2ccc(OCCC(C)C)cc12` [Compound 8], for which the EC30 under setting [1] was found to be 0.93 µM and the EC30 under setting [2] is less than 3 µM.

As to `CNCCN(C)Cc1n[nH]c2ccc(OC(C)Cc3ccccc3)cc12` (stereo not shown) [Compound 9], the EC30 runs as follows: under setting [1], 3.43 µM; under setting [2], 3.01 to 12 µM.

For the compound `CNCCN(C)Cc1n[nH]c2ccc(Oc3ccccc3)cc12` [Compound 10, N^1,N^2-dimethyl-N^1-((5-phenoxy-1H-indazol-3-yl)methyl)ethane-1,2-diamine], the EC30 under setting [1] amounted to 3.83 µM and the EC30 under setting [2] fell in the range of 3.01 to 12 µM.

As to `CNCCN(C)Cc1n[nH]c2ccc(OC3CCCC3)cc12` [Compound 11], the EC30 is 0.724 µM under setting [1] and less than 3 µM under setting [2].

Turning to `CNCCN(C)Cc1n[nH]c2ccc(OCc3ccccn3)cc12` [Compound 12], the EC30 under setting [1] came to 6.06 µM and the EC30 under setting [2] is 3.01 to 12 µM.

Regarding `CNCCN(C)Cc1n[nH]c2ccc(OCc3ccc(C#N)cc3)cc12` [Compound 13], the EC30 is, setting by setting: under setting [1], 3.81 µM; under setting [2], 3.01 to 12 µM.

In the case of `CNCCN(C)Cc1n[nH]c2ccc(OCc3cccc(C#N)c3)cc12` [Compound 14], the EC30 is 4.14 µM under setting [1] and 3.01 to 12 µM under setting [2].

For the compound `CNCCN(C)Cc1n[nH]c2ccc(OCc3cc[nH]n3)cc12` [Compound 17], the EC30 under setting [3] is greater than 12 µM and the EC30 under setting [1] stood at 8.99 µM.

Regarding `CNCCN(C)Cc1n[nH]c2ccc(OC3CCCCC3)cc12` [Compound 18], the EC30 was 0.582 µM under setting [1] and less than 3 µM under setting [2].

For the compound `CNCCN(C)Cc1n[nH]c2ccc(Oc3ccccc3OC)cc12` [Compound 24], the EC30 was 1.93 µM (RKO, 72 h, read-out: RGG ICW) and less than 3 µM under setting [3].

On to `CNCCN(C)Cc1n[nH]c2ccc(OC3CCOC3)cc12` (stereo not shown) [Compound 25, N^1,N^2-dimethyl-N^1-((5-((tetrahydrofuran-3-yl)oxy)-1H-indazol-3-yl)methyl)ethane-1,2-diamine], for which the EC30 was 2.66 µM under setting [1] and less than 3 µM under setting [2].

With `CNCCN(C)Cc1n[nH]c2ccc(Oc3cccc(C)c3)cc12` [Compound 26], the EC30 is 3.07 µM (RKO, 72 h, read-out: RGG ICW) and 3.01 to 12 µM under setting [3].

Consider `CNCCN(C)Cc1n[nH]c2ccc(Oc3cccc(Cl)c3)cc12` [Compound 27, N^1-((5-(3-chlorophenoxy)-1H-indazol-3-yl)methyl)-N^1,N^2-dimethylethane-1,2-diamine], for which the EC30 reads like this: (RKO, 72 h, read-out: RGG ICW) 4.47 µM; under setting [3], 3.01 to 12 µM.

Regarding `CNCCN(C)Cc1n[nH]c2ccc(Oc3cccc(C#N)c3)cc12` [Compound 28], the EC30 reads like this: (RKO, 72 h, read-out: RGG ICW) 4.62 µM; under setting [3], 3.01 to 12 µM.

Consider `CNCCN(C)Cc1n[nH]c2ccc(OC3CCOCC3)cc12` [Compound 29, N^1,N^2-dimethyl-N^1-((5-((tetrahydro-2H-pyran-4-yl)oxy)-1H-indazol-3-yl)methyl)ethane-1,2-diamine], for which the EC30 runs as follows: (RKO, 72 h, read-out: RGG ICW) 5.04 µM; under setting [3], 3.01 to 12 µM.

Turning to `CNCCN(C)Cc1n[nH]c2ccc(Oc3ccccc3Cl)cc12` [Compound 30], the EC30 was 7.2 µM (RKO, 72 h, read-out: RGG ICW) and 3.01 to 12 µM under setting [3].

On to `CNCCN(C)Cc1nn(C)c2ccc(OCc3ccc(C#N)cc3)cc12` [Compound 32], for which the EC30 was 8.9 µM (RKO, 72 h, read-out: RGG ICW) and 3.01 to 12 µM under setting [3].

On to `CNCCN(C)Cc1c2cc(OCc3ccc(C#N)cc3)ccc2nn1C(C)C` [Compound 34], for which the EC30 is, setting by setting: (RKO, 72 h, read-out: RGG ICW) greater than 20 µM; under setting [3], greater than 12 µM.

`CNCCN(C)Cc1n[nH]c2ccc(O)cc12` [Compound 36, 3-((methyl(2-(methylamino)ethyl)amino)methyl)-1H-indazol-5-ol]: the EC30 under setting [1] is greater than 20 µM and the EC30 under setting [2] is greater than 12 µM.

Regarding `CNCCN(C)Cc1n[nH]c2ccc(Oc3ccc(C#N)cc3)cc12` [Compound 37], the EC30 is greater than 20 µM under setting [1] and greater than 12 µM under setting [2].

In the case of `CNCCN(C)Cc1nn(C2CCN(C(C)=O)CC2)c2ccc(OCc3ccc(C#N)cc3)cc12` [Compound 38], the EC30 was greater than 20 µM under setting [1] and greater than 12 µM under setting [2].

As to `CNCCN(C)Cc1n[nH]c2ccc(Oc3ccc(C(F)(F)F)cc3)cc12` [Compound 39], the EC30 by setting is: (RKO, 72 h, read-out: RGG ICW) greater than 20 µM; under setting [3], greater than 12 µM.
